In patent US12110527B2, “Production of symmetrical bolaform sophorosides” (priority 2018, dated 2024):

Tested on: S. bombicola Δcyp52M1Δfao1 strain
Experiment: Shake flask cultivation fed with different primary fatty alcohols: follow-up of growth (CFU) and glucose consumption
Type: cell-based, Starmerella bombicola
Conditions: for glucose consumption rate: alcohol fed at 1.8 (w/v) % after 48 h of cultivation, shake flask
Method: Production experiments using S. bombicola were performed using the production medium described by Lang et al. (2000). For shake flask experiments, 5 ml tube cultures were set up 24 h (30° C.), before transferring to shake flasks (4% inoculation). Production experiments were executed with feeding of fatty alcohols: oleyl alcohol, stearyl alcohol, lauryl alcohol, myristyl alcohol or cetyl alcohol which were added after 48 h of cultivation. The Δcyp52M1Δfao1 strain was also assessed without addition of the hydrophobic alcohol. For every production experiment, cultivation was stopped when glucose was depleted from the medium. Experiments were performed in duplicate, and average values with standard deviations are presented.
Optical density (OD) of cultures was measured at 600 nm using the Jasco V 630 Bio spectrophotometer (Jasco Europe) of 1 mL samples diluted with physiological solution (9 g/L NaCl). The viability of yeast cells in cultivation experiments was assessed by determining colony forming units (CFUs) which were expressed as the average logarithm of CFUs per culture volume as log (CFU/mL) (Saerens et al., 2011). Alternatively, Cell Dry Weight (CDW) was determined by centrifuging 1 mL fermentation samples at 14000 rpm for 5 min in tared Eppendorf tubes, and subsequently washing the cell pellets twice with 1 mL physiological solution. The remaining cell pellet was put into a 70° C. oven for 5 days and then weighed afterwards. The CDW (g/L) was calculated after subtraction of the empty weight of the Eppendorf tube.
Glucose concentrations were determined using the 2700 Select Biochemistry Analyser (YSI Inc.) or using Ultra Performance Liquid Chromatography (Waters Acquity H-Class UPLC), coupled with an Evaporative Light Scattering Detector (Waters Acquity ELSD Detector) (UPLC-ELSD). For the UPLC analysis, an Acquity UPLC BEH Amide column (130 Å, 1.7 μm, 2.1×100 mm) (Waters) was used at 35° C. and an isocratic flow rate of 0.5 mL/min of 75% acetonitrile and 0.2% triethylamine (TEA) was applied (5 min/sample). For the ELS detection, the nebulizer was cooled to 15° C. and the drift tube was kept at a temperature of 50° C. […] To express glucose consumption, a linear curve was fitted through the obtained glucose concentrations by UPLC-ELSD, and the respective slope was taken and denoted as the glucose consumption rate (g/L·h).
When two different groups were compared, the Welch's test was performed with a 95% confidence level using GraphPad Prism 7.04 software. For multiple group comparisons, analysis of variance (ANOVA) with Bonferroni's multiple comparison test correction with a 95% confidence level using GraphPad Prism 7.04 software was employed. For parameters pH, CFU, OD and glucose consumption, average values were taken when the yeast cells attained their stationary phase (after 48 h of cultivation). In general, data represented in graphs are the average and standard deviation of two experimental replicates (unless stated otherwise).
Unexpectedly, no successful uniform production of either bola SSs or alkyl SSs was obtained for the Δcyp52M1Δfao1 strain when feeding with oleyl alcohol. Instead, mixtures of both were found, although the majority of the novel glycolipids were (acetylated) bola SSs and only minor amounts of alkyl SS were produced. The production of tetra-acetylated bola SS was unexpected, since the CYP52M1 enzyme was thought to be the only enzyme involved in glycolipid production thus far in S. bombicola. To assess the influence on the chain lengths of primary alcohols to the glycolipid production, different substrates were fed to the Δcyp52M1Δfao1 strain. The parental strain Δcyp52M1 was assessed in parallel. Medium and long-chain alcohols were selected between a chain length of 12 and 18, similarly as reported by Davila et al. (1994) for alkanes. Similarly as for the experiments described above, the hydrophobic substrate was added after 48 h of cultivation.

SMILES: CCCCCCCCCCCCCCCCO [cetyl alcohol]
- glucose consumption rate: 0.38 g/L·h

SMILES: CCCCCCCCCCCCO [lauryl alcohol]
- glucose consumption after addition of the alcohol (addition 48 h after inoculation): stopped
- CFUs (log (CFU/mL)) (after addition of the alcohol, 1.8 (w/v) % added after 48 h of cultivation, in contrast to all other fed substrates (FIG. 8A)): significant drop
- glucose consumption rate after it initiated again (only Δcyp52M1Δfao1 strain, 100 h after substrate addition, until all glucose was depleted): 0.33 g/L·h

SMILES: CCCCCCCCCCCCCCO [myristyl alcohol]
- glucose consumption rate: 0.48 g/L·h

SMILES: CCCCCCCCCCCCCCCCCCO [stearyl alcohol]
- glucose consumption rate: 0.38 g/L·h

SMILES: CCCCCCCC/C=C\CCCCCCCCO [oleyl alcohol]
- glucose consumption rate: 0.48 g/L·h
